# Measured values published in patent US10682352B2, “Compound having mutant IDH inhibitory activity, preparation method and use thereof” (SHANGHAI HAIHE PHARMACEUTICAL CO., LTD., priority 2016, dated 2020).
# Biological target: IDH1 R132H (Homo sapiens (Human), UniProt O75874, R132H)
# Experiment: Effect on the enzyme activity of IDH1 at the molecular level (NADPH consumption, diaphorase/resazurin)
# Assay type: biochemical
# Conditions: α-KG 1 mM, NADPH 4 μM, 60 min room temperature
# Description: The enzyme used in the experiment was purchased from cayman Co.
# The substrates α-KG, NADPH and Diaphorase were purchased from Sigma; Resazurin was purchased from J&K; and the remaining reagents were purchased from Sinopharm Chemical Reagent Co., Ltd.
# Compound preparation: Compound 12000 g was centrifuged for 5 min, DMSO was added to prepare 10 mM, which was vortexed, then ultrasonic treatment for 10 minutes, and stored at −40° C. The stock solution was diluted firstly with DMSO to a 10 μM solution when tested and then gradient-diluted for 3 times to a different test concentration.
# Test method: The enzyme activity of IDH1 to convert α-KG to 2HG was measured by the consumption of NADPH. After the enzymatic reaction was completed, a catalytic excess of diaphorase and reazurin were added, and the resulting fluorescent signal could reflect the amount of remaining NADPH. […] IC50 values were calculated using GraphPad Prism software.
# Chain of IDH1 R132H (O75874 whole entry R132H): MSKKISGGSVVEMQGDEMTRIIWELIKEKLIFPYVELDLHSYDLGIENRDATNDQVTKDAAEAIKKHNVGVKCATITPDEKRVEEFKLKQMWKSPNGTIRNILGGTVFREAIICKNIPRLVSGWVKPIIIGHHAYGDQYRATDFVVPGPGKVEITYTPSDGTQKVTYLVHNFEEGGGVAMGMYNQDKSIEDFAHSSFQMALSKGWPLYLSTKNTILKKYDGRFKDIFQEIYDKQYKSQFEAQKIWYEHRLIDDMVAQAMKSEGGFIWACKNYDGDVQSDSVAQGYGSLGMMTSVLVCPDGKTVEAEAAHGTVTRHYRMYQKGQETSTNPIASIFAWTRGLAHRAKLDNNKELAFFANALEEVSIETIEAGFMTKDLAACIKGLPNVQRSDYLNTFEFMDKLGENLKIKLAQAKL
row,SMILES,IC50 [nM]
1,"[2H]C1([2H])[C@H](C(C)C)N(c2ccnc(N[C@@H](C)c3ccc(-c4cccc(Cl)c4)cn3)n2)C(=O)N1C [Compound 2, (S)-3-(2-(((S)-1-(5-(3-chlorophenyl)pyridin-2-yl)ethyl)amino)pyrimidin-4-yl)-4-isopropyl-1-methyl-imidazolidine-2-one-5,5-dideutero]",100 to 1000
2,"CC(C)[C@H]1CNC(=O)N1c1ccnc(NC2(c3cn(-c4ccc(Cl)cc4)cn3)CC2)n1 [Compound 8, (S)-1-(2-((1-(1-(4-chlorophenyl)-1H-imidazol-4-yl)cyclopropyl)amino)pyrimidin-4-yl)-5-isopropyl imidazolidine-2-one]",100 to 1000
3,"CC(Nc1nccc(N2C(=O)NC[C@@H]2C(C)C)n1)c1ccc(Oc2ccccc2)cc1 (stereo partly drawn) [Compound 9, (5S)-5-isopropyl-1-(2-((1-(4-phenoxyphenyl)ethyl)amino)pyrimidin-4-yl)imidazolidine-2-one]",100 to 1000
4,"C[C@H](Nc1nccc(N2C(=O)NCC23CCCC3)n1)c1cn(-c2ccc(Cl)cc2)cn1 [Compound 11, (S)-1-(2-((1-(1-(4-chlorophenyl)-1H-imidazol-4-yl)ethyl)amino)pyrimidin-4-yl)-1,3-diazaspiro[4.4]-2-one]",100 to 1000
5,"C[C@H](Nc1nccc(N2C(=O)NCC2(C)C)n1)c1cn(-c2ccc(Cl)cc2)cn1 [Compound 12, (S)-1-(2-((1-(1-(4-chlorophenyl)-1H-imidazol-4-yl)ethyl)amino)pyrimidin-4-y 1)-5,5-dimethyl imidazolidine-2-one]",100 to 1000
6,"O=C1NC[C@H](c2ccccc2)N1c1ccnc(NC2(c3cn(-c4ccc(Cl)cc4)cn3)CC2)n1 [Compound 13, (S)-1-(2-((1-(1-(4-chlorophenyl)-1H-imidazol-4-yl)cyclopropyl)amino)pyrimidin-4-yl)-5-phenylimidazolidine-2-one]",100 to 1000
7,C[C@H](Nc1nccc(N2C(=O)NC[C@@H]2C2CC2)n1)c1cn(-c2ccc(Cl)cc2)cn1 [Compound 14],100 to 1000
8,"CC(C)[C@H]1CNC(=O)N1c1ccnc(NC2(c3ccc(-c4ccc(Cl)cc4)cc3)CC2)n1 [Compound 16, (S)-1-(2-((1-(4′-chloro-[1,1′-biphenyl]-4-yl)cyclopropyl)amino)pyrimidin-4-yl)-5-isopropyl imidazolidine-2-one]",100 to 1000
9,"CC(C)[C@H]1CN(C)C(=O)N1c1ccnc(NC2(c3cn(-c4ccc(Cl)cc4)cn3)CC2)n1 [Compound 19, (S)-3-(2-((1-(1-(4-chlorophenyl)-1H-imidazol-4-yl)cyclopropyl)amino)pyrimidin-4-yl)-4-isopropyl-1-methylimidazolidine-2-one]",100 to 1000
10,"Cc1ccc(-n2cnc(C3(Nc4nccc(N5C(=O)NC[C@@H]5C(C)C)n4)CC3)c2)cn1 [Compound 29, (S)-5-isopropyl-1-(2-((1-(1-(6-methylpyridin-3-yl)-1H-imidazol-4-yl)cyclopropyl)amino)pyrimidine-4-yl)-2-one]",100 to 1000
11,"CC(C)[C@H]1CN(C)C(=O)N1c1ccnc(NC2(c3cn(C4CCC(F)(F)CC4)cn3)CC2)n1 [Compound 36, (S)-3-(2-((1-(1-(4,4-difluorocyclohexyl)-1H-imidazol-4-yl)cyclopropyl)amino)pyrimidin-4-yl)-4-isopropyl-1-methylimidazolidine-2-one]",100 to 1000
12,"CC(C)[C@H]1CN(C)C(=O)N1c1ccnc(NC2(c3cn(-c4ccc(C5CC5)cc4)cn3)CC2)n1 [Compound 39, (S)-3-(2-((1-(1-(4-cyclopropylphenyl)-1H-imidazol-4-yl)cyclopropyl)amino)pyrimidin-4-yl)-4-isopropyl-1-methylimidazolidine-2-one]",100 to 1000
13,"CC(C)[C@H]1CN(C)C(=O)N1c1ccnc(NC2(c3cn(CC4CCCC4)cn3)CC2)n1 [Compound 40, (S)-3-(2-((1-(1-(cyclopentylmethyl)-1H-imidazol-4-yl)cyclopropyl)amino)pyrimidin-4-yl)-4-isopropyl-1-methylimidazolidine-2-one]",100 to 1000
14,CCN1C[C@H](C(C)C)N(c2ccnc(NC3(c4cn(-c5cccc(Cl)c5)cn4)CC3)n2)C1=O [Compound 41],100 to 1000
15,"CC(C)[C@H]1CN(C)C(=O)N1c1ccnc(NC2(c3cn(-c4cc(Cl)cc(C#N)c4)cn3)CC2)n1 [Compound 45, (S)-3-chloro-5-(4-(1-((4-(5-isopropyl-3-methylimidazolidine-2-one-1-yl)pyrimidin-2-yl)amine)cyclopropyl)-1H-imidazolidine-1-yl) phenyl cyanide]",< 100
16,CC(C)[C@H]1CN(C)C(=O)N1c1ccnc(NC2(c3cn(-c4cc(Cl)cc(C5CC5)c4)cn3)CC2)n1 [Compound 48],< 100
17,"CC(C)[C@H]1CN(C)C(=O)N1c1ccnc(NC2(c3cn(-c4ccccc4Cl)cn3)CC2)n1 [Compound 51, (S)-3-(2-((1-(1-(2-chlorophenyl)-1H-imidazol-4-yl)cyclopropyl)amino)pyrimidin-4-yl)-4-isopropyl-1-methylimidazolidine-2-one]",100 to 1000
18,CC(C)[C@H]1CN(C)C(=O)N1c1ccnc(NC2(c3cn(-c4cc(F)cc(C5CC5)c4)cn3)CC2)n1 [Compound 53],< 100

row,SMILES,IC50 [nM]
1,CC(C)c1cccc(-n2cnc([C@H](C)Nc3nccc(N4C(=O)N(C)C[C@@H]4C(C)C)n3)c2)c1 [Compound 54],100 to 1000
2,"CC(C)[C@H]1CN(C)C(=O)N1c1ccnc(N[C@@H](C)c2cn(C3CCC(C)(C)CC3)cn2)n1 [Compound 56, (S)-3-(2-(((S)-1-(1-(4,4-dimethylcyclohexyl)-1H-imidazol-4-yl)ethyl)amino)pyrimidin-4-yl)-4-isopropyl-1-methylimidazolidine-2-one]",100 to 1000
3,CC(C)[C@H]1CN(C)C(=O)N1c1ccnc(N[C@@H](C)c2cn(-c3cccc(C(F)(F)F)c3)cn2)n1 [Compound 59],100 to 1000
4,"CC(C)[C@H]1CN(C)C(=O)N1c1ccnc(N[C@@H](C)c2cn(-c3cc(Cl)cc(Cl)c3)cn2)n1 [Compound 60, (S)-3-(2-(((S)-1-(1-(3,5-dichlorophenyl)-1hydro-imidazol-4-yl)ethyl)amino)pyrimidin-4-yl)-4-isopropyl-1-methylimidazolidine-2-one]",100 to 1000
5,CC(C)[C@H]1CN(C)C(=O)N1c1ccnc(NC2(c3ncn(-c4cccc(C5CC5)c4)n3)CC2)n1 [Compound 64],100 to 1000
6,"CC(C)CCn1cnc([C@H](C)Nc2nccc(N3C(=O)N(C)C[C@@H]3C(C)C)n2)c1 [Compound 66, (S)-3-(2-(((S)-1-(1-isopentyl-1H-imidazol-4-yl)yl)amino)pyrimidin-4-yl)-4-isopropyl-1-methylimidazolidine-2-one]",100 to 1000
7,CC(C)[C@H]1CN(C)C(=O)N1c1ccnc(NC2(c3cn(-c4cccc(C5CC5)c4)c(Br)n3)CC2)n1 [Compound 67],100 to 1000
8,"CC(C)[C@H]1CN(C)C(=O)N1c1ccnc(NC2(c3ncn(-c4cccc(C5CC5)c4)c3C#N)CC2)n1 [Compound 69, (S)-1-(3-cyclopropylphenyl)-4-(1-((4-(5-isopropyl-3-methyl-2-oxoimidazolidine-1-yl)pyrimidine-2-yl)amino)cyclopropyl)-1H-imidazole-5-carbonitrile]",100 to 1000
9,CC(C)[C@H]1CN(C)C(=O)N1c1ccnc(N[C@@H](C)c2ncn(-c3ccc(Cl)cc3)n2)n1 [Compound 70],100 to 1000
10,"CC(C)[C@H]1CN(C)C(=O)N1c1ccnc(NC2(c3cn(-c4cccc(C5CC5)c4)cn3)CCC2)n1 [Compound 71, (S)-3-(2-((1-(1-(3-cyclopropylphenyl)-1H-imidazol-4-yl)cyclobutyl)amino)pyrimidin-4-yl)-4-isopropyl-1-methylimidazolidine-2-one]",100 to 1000
11,"CC(C)[C@H]1CN(C)C(=O)N1c1ccnc(NC(C)(C)c2cn(-c3ccc(Cl)cc3)cn2)n1 [Compound 72, (S)-3-(2-((2-(1-(4-chlorophenyl)-1H-imidazol-4-yl)prop-2-yl)amino)pyrimidin-4-yl)-4-isopropyl-1-methylimidazolidine-2-one]",100 to 1000
12,"CC(C)[C@H]1CN(C2CC2)C(=O)N1c1ccnc(N[C@@H](C)c2cn(-c3ccc(Cl)cc3)cn2)n1 [Compound 73, (S)-3-(2-(((S)-1-(1-(4-chlorophenyl)-1H-imidazol-4-yl)ethyl)amino)pyrimidin-4-yl)-4-isopropyl-1-cyclopropylimidazolidine-2-one]",100 to 1000
13,"CCN1C[C@H](C(C)C)N(c2ccnc(N[C@@H](C)c3cn(-c4ccc(Cl)cc4)cn3)n2)C1=O [Compound 74, (S)-3-(2-(((S)-1-(1-(4-chlorophenyl) 1H-imidazol-4-yl)ethyl)amino)pyrimidin-4-yl)-1-ethyl-4-isopropylimidazolidine-2-one]",100 to 1000
14,"CC(C)[C@H]1CN(C)C(=O)N1c1ccnc(N[C@@H](C)c2cn(C3CCC(F)(F)CC3)cn2)n1 [Compound 75, (S)-3-(2-(((S)-1-(1-(4,4-difluorocyclohexyl)-1H-imidazol-4-yl)ethyl)amino)pyrimidin-4-yl)-4-isopropyl-1-methylimidazolidine-2-one]",100 to 1000
15,"Cc1cc(N2C(=O)N(C)C[C@@H]2C2CC2)nc(N[C@@H](C)c2cn(-c3ccc(Cl)cc3)cn2)n1 [Compound 79, (S)-3-(2-(((S)-1-(1-(4-chlorophenyl)-1H-imidazol-4-yl)ethyl)amino)-6-methylpyrimidin-4-yl) cyclopropyl-1-methylimidazolidine-2-one]",100 to 1000
16,C[C@H](Nc1nccc(N2C(=O)N(C)C[C@@H]2[C@@H](C)O)n1)c1cn(-c2ccc(Cl)cc2)cn1 [Compound 81],100 to 1000
17,"CC(C)[C@@H]1N(c2ccnc(N[C@@H](C)c3cn(-c4ccc(Cl)cc4)cn3)n2)C(=O)NC12CC2 [Compound 99, (S)-6-(2-(((S)-1-(1-(4-chlorophenyl)-1H-imidazol-4-yl)ethyl)amino)pyrimidin-4-yl)-7-isopropyl-4,6-diazaspiro[2.4] hept-5-one]",100 to 1000
